# Measured values published in patent publication US10772840B2 (Charleston Laboratories, Inc., priority 2016, dated 2020).
# Counter-ions that a name gives are not always drawn.
# Assay: Impurity profile (related substances) by HPLC, initial and after one month at 40° C. (stability study)
# Assay type: physicochemical
# Conditions: HPLC percent area
# Description: The percentages of related substances were measured using an HPLC.
# Stock promethazine HCl selectivity solution was prepared by accurately weighing about 2 mg of EP promethazine for peak identification CRS and transferring into 1 mL of diluent (prepared by mixing 750 mL of mobile phase A and 250 mL of acetonitrile), followed by vortexing to dissolve.
# Ten capsules were randomly selected and weighed. The contents of the ten capsules were emptied into a 500 mL volumetric flask. 300 mL of diluent was added and the mixture was sonicated in an ice bath for 40 minutes or until completely disintegrated with intermittent swirling. The temperature was equilibrated to room temperature and more diluent was added to volume.
# Promethazine HCl impurity sample solution: stock solution sample was filtered through a 0.45 μm PVDF membrane, syringe filter or a 0.45 μm PTFE w/GMF membrane, syringe filter discarding the first 5 mL and collecting approximately 20 mL into an appropriate glass container. Fill an HPLC vial with the filtrate
# The RT of the promethazine in the promethazine HCl selectivity solution is between 44.1 and 53.9.
# Mobile Phase B: 0.2% TFA in Acetonitrile, which was prepared by mixing well 2.0 ml of trifluoroacetic acid to 1 L of acetonitrile; and Gradient used was as follows in Table 15.
# All known and unknown impurities were calculated via percent area as follow:
# [formula] Where: • Ru=Peak area of related substance in the sample solution • Rt=Sum of peak area of promethazine or sumatriptan and all related substances areas corresponding to respective peak in sample solution • RRF=Relative Response Factor for related substances
# The formulation was examined for its stability after one month at 40° C.
structure (smiles),measurement,setting,value
"CC(CN1c2ccccc2Sc2ccccc21)N(C)C (centres unmarked) [Promethazine, Promethazine Hydrochloride]","Impurity percentages, all related substances combined",in a capsule stored at 40° C. for 1 month,0.2%
same,"Impurity percentages, all related substances combined","in a capsule, initial (before storage)",0.3%
